Here are results for seven molecules from patent US20050176727A1, “Oximes and hydrazones that are useful in treating sexual dysfunction” (priority 2004, published 2005).

Where a name gives a salt, the structure may show the parent alone.

In data set [1] the test system is penile erection in Wistar rats. Put plainly: Rat penile erection model. It counts as in vivo. As to conditions: reference compound. On the procedure:
Wistar rats were used as a primary animal model to study penile erection in vivo. All experiments were carried out between 9:00 AM and 3:00 PM in a diffusely illuminated testing room with a red light. Animals (n=8-30) were weighed and allowed to adapt to the testing room for 60 minutes before the beginning of experiments. Rats were placed individually in a transparent cage (20×30×30 cm) after drug injection.

As to `CCCCON=C(CCN1CCN(c2ccccn2)CC1)c1ccccc1` (as salt: maleate) [Example 30, 1-phenyl-3-(4-pyridin-2-ylpiperazin-1-yl)propan-1-one O-butyloxime], the melting point (usually the temperature of the solid-liquid transition) fell in the range of 154 to 155 °C.

Molecule `CC(C)O/N=C(\CCN1CCN(c2ccccn2)CC1)c1ccccc1` (as salt: maleate) [Example 31, (1E)-1-phenyl-3-(4-pyridin-2-ylpiperazin-1-yl)propan-1-one O-isopropyloxime] yielded a melting point of 156 to 157 °C.

Take `O/N=C(\CCN1CCN(c2ccccn2)CC1)c1ccc(Cl)cc1` [Example 22, (1E)-1-(4-chlorophenyl)-3-(4-pyridin-2-ylpiperazin-1-yl)propan-1-one oxime]: the melting point was 188 to 190 °C.

For the molecule `CN1CCc2cccc3c2[C@H]1Cc1ccc(O)c(O)c1-3` [apomorphine, (6aR) 5,6,6a,7-tetrahydro-6-methyl-4H-dibenzo[de,g]quinoline-10,11-diol], in data set [1], the most efficacious dose was determined as 0.1 µmol/kg.

The molecule `CON=C(c1ccc(Cl)cc1)C(C)CN1CCN(c2ccccn2)CC1` (stereo not shown) (as salt: maleate) [Example 39, 1-(4-chlorophenyl)-2-methyl-3-(4-pyridin-2-ylpiperazin-1-yl)propan-1-one O-methyloxime] displayed a melting point of 152 to 153 °C.

`ON=C(CCN1CCN(c2ccccn2)CC1)c1ccc(F)cc1` [Example 21, 1-(4-fluorophenyl)-3-(4-pyridin-2-ylpiperazin-1-yl)propan-1-one oxime]: the melting point is 159 to 160 °C.

`N#CCON=C(CCN1CCN(c2ccccn2)CC1)c1ccccc1` (as salt: maleate) [Example 29, ({[1-phenyl-3-(4-pyridin-2-ylpiperazin-1-yl)propylidene]amino}oxy)acetonitrile]: the melting point is 127 to 128 °C.
